Laboratory results: patent US9938335B2, “Glucagon and GLP-1 co-agonist compounds” (Eli Lilly and Company, priority 2015, dated 2018)
≈ marks a conversion by molar mass, not a printed value. Where two headings read alike, the source gives them in different places. Marks after values point to notes of the source that are not given here. Starred links: 1 amine or outer side, 2 acyl side, 3 side chain; linkers in the order of their positions; H or OH if unused. Non-standard residues stand in square brackets, D forms with d. Residues, ends and D or L forms follow the SMILES beside them. Groups on a side chain read outwards from the residue. *: point of attachment. C20 diacid = O=C(O)CCCCCCCCCCCCCCCCCCC(=O)*; γGlu = O=C(O)[C@H](CCC(=O)[*:2])N[*:1]; AEEA = NCCOCCOCC(=O)O; Aib = CC(C)(N)C(=O)O

What was measured:
[1] = biological target: T1, hGLP-1-R (Homo sapiens, UniProt P43220); assay: hGLP-1R Binding Assay (SPA radioligand competition, 293HEK membranes); set-up: expressed in transfected cells; host or cells: 293HEK, stably transfected with plasmid phD, Hygromycin-selected; crude plasma membranes; details: read-out: Ki, nM ± SEM at the hGLP-1-R
[2] = tested on: DIO mice (C57BL/6); assay: Glycemic control in DIO mice; assay type: in vivo, mouse; details: for Blood glucose (mg/dL) post-injection, Mean: male DIO mice, 25 nmol/kg sc once
Procedure: Five to six months old male DIO mice (C57BL/6) from Taconic Biosciences are used in this study. Animals are individually housed in a temperature-controlled (24° C.) facility with a 12 hour light/dark cycle (lights on 6:00), and free access to food and water. After two weeks acclimation to the facility, the mice are randomized to treatment groups (n=7/group) based on their body weight and blood glucose. Mice are injected subcutaneously once with vehicle or compounds (25 nmol/kg). Blood glucose is monitored 2 and 8 hours post-injection and then once a day at 08:00 for 4 days. OGTTs are performed at 44 and 78 hours post the peptide injection. Statistics are analyzed using ANOVA with Dunnett's comparison by JMP 6. Significance is denoted at p≤0.05 vs vehicle.

[3] = Viscosity (Rheosense mVroc Viscometer); assay type: physicochemical; details: approximately 10 mg/mL peptide in 10 mM Tris + 3 mg/mL m-cresol at pH 8.0; 25° C.; shear rate 1934 s^−1
Procedure: Viscosity of compounds of the present invention is measured in a Rheosense mVroc Viscometer with the following settings:
(a) Syringe size: 500 μL syringe
(b) Flow Rate: 100 μL/min flow rate
(c) Average Temperature: 25° C.
(d) Shear Rate: 1934 s^−1
Dry powder (compound) is weighed out, dissolved in water as a cloudy precipitate, and titrated to approximately pH 8.0 with 1N NaOH. The solution is sonicated and swirled by hand until peptide is in solution. Samples are sterile filtered (0.22 μm PVDF filters). Samples are then analyzed by UV-Vis to assess stock solution concentrations. Solutions are diluted to final concentration using 3× m-cresol in 10 mM Tris pH 8.0 buffer to final concentrations of approximately 10 mg/mL peptide by weight in 10 mM Tris+3 mg/mL m-cresol at pH 8.0. Samples were filtered through 0.22 μm filters immediately prior to viscosity analysis. 25 μL of sample are removed to verify concentration by RP-HPLC before and after analysis.
Water and buffer control samples are measured before and after each sample is analyzed. The instrument is washed with buffer (3×) in between analysis of each sample. The samples are loaded into individual syringes and analyzed. The first measurement is not included in the final calculation to allow for equilibration with the system. Samples are then analyzed in triplicate (n=3).
The viscosity of Compounds 1-4 was measured essentially as described in this assay.

[4] = biological target: T2, Human Gcg-R (Homo sapiens, UniProt P47871); assay: Functional hGcg-R assay (cAMP HTRF, HEK-293 clonal cell line); assay type: cell-based
T2 construct: expressed in transfected cells; host or cells: HEK-293 clonal cell line over-expressing the receptor
Procedure: (§1) After a 60 minute incubation at room temperature, the resulting increase in intracellular cAMP (adenosine 3′,5′-cyclic monophosphate) is quantitatively determined using the CisBio cAMP Dynamic 2 HTRF Assay Kit (62AM4PEJ). cAMP levels within the cell are detected by adding the cAMP-d2 conjugate in cell lysis buffer (20 μl) followed by the antibody anti-cAMP-Eu^3+-Cryptate, also in cell lysis buffer (20 μl).
(§2) A relative EC50 value and percent top (Emax) are derived by non-linear regression analysis using the percent maximal response vs. the concentration of peptide added, fitted to a four-parameter logistic equation (Genedata Screener®).
(§3) Means for EC50 are expressed as Geometric means±standard error of the mean (SEM) with the number of replicates (n) indicated in parenthesis. Means for Emax are expressed as the arithmetic mean±standard error. ND signifies that agonist activity was not detected.

[5] = tested on: DIO mice (C57BL/6); assay: Chronic treatment in DIO mice (body weight, fat, food intake); assay type: in vivo, mouse
Procedure: The effects on food intake and body weight/fat are evaluated in DIO mice. Five to six months old DIO mice (C57BL/6) from Taconic Biosciences are used in this study. Animals are individually housed in a temperature-controlled (24° C.) facility with a 12 hour light/dark cycle (lights on 6:00), and free access to food and water. The mice are acclimated to the facility for two weeks. The day before the study start, fat mass is measured by nuclear magnetic resonance (NMR) using an Echo Medical System (Houston, Tex.) instrument. The mice are randomized to treatment groups (N=7/group) based on body weight and fat mass so each group had similar starting mean body weight and fat mass. […] SC injections are made on Day 1, 4, 7, 10, and 13. Body weight and food intake are measured right before each injection throughout the study. Percent changes in body weight are calculated as follows: […]
At the completion of the study, total fat mass is measured again by NMR. Statistics are analyzed using ANOVA with Dunnett's comparison by JMP 6. Significance is denoted at p≤0.05 vs. vehicle.

[6] = biological target: hGcg-R (Homo sapiens, UniProt P47871); assay: hGcg-R Binding Assay (SPA radioligand competition, 293HEK membranes); details: read-out: Ki, nM ± SEM at the hGcg-R
[7] = biological target: T1, hGLP-1-R; assay: Functional hGLP-1-R assay (cAMP HTRF, HEK-293 clonal cell line); assay type: cell-based; set-up: expressed in transfected cells; host or cells: HEK-293 clonal cell line over-expressing the receptor
Procedure: as §1, §2, §3

[8] = Solubility (RP-HPLC and HPLC-SEC, 1 week at 4° C.); assay type: physicochemical
Procedure: Solubility of compounds of the present invention is measured in an Agilent 1100 HPLC, an Agilent 1200 HPLC and a Nanodrop 2000. The following HPLC columns are used:
(a) RP-HPLC: Waters Symmetry Shield C18, 3.6 um, 4.6×100 mm
(b) HPLC-SEC: Tosoh Biosciences, TSK2000SWXL […]
All peptide concentrations are made at 10 mg/mL in the following:
(a) 10 mM Tris pH 8.0+3 mg/mL m-cresol
(b) 10 mM Tris pH 8.0+3 mg/mL m-cresol+150 mM NaCl
(c) 10 mM Tris pH 8.0+3 mg/mL m-cresol+0.02% Tween-20
5 mL of 10 mg/mL peptide dissolved in 10 mM Tris at pH 8.0 is concentrated to approximately 20 mg/mL using Amicon-ultra 3 kDa MWCO devices. The solution is filtered using Millivex 0.22 μM filters (PVDF membrane) and the final concentration is measured by the NanoDrop spectrometer. This stock solution is used to formulate to the final conditions stated above using 3× m-cresol, 10× NaCl, and 100× Tween-20 stock solutions. A 10 mg/mL PBS solution is also prepared by dissolving directly at 5 mg/mL and concentrating using Amicon-ultra 3 kDa MWCO devices.
Each solution is placed in a refrigerator at 4° C. for 1 week, with analysis by RP-HPLC to assess concentration and HPLC-SEC to assess HMW species formation. Analyses completed at T-0 week and T-1 week.
The solubility of Compounds 1-4 was measured essentially as described in this assay.

[9] = 15 nmol/kg sc every three days for 15 days
[10] = 30 nmol/kg sc every three days for 15 days

T1 sequence (P43220 24-463): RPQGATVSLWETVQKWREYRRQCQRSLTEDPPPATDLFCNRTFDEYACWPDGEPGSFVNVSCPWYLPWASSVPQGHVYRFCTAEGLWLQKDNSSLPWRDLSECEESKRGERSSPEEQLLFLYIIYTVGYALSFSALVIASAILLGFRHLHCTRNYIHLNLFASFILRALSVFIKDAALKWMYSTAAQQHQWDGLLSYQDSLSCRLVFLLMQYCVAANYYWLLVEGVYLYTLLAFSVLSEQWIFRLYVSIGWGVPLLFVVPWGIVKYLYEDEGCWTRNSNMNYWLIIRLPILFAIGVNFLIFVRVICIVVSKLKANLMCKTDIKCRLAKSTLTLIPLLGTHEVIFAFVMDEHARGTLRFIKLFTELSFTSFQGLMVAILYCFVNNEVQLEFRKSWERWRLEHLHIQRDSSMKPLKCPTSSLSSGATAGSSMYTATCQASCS
T2 sequence (P47871 26-477): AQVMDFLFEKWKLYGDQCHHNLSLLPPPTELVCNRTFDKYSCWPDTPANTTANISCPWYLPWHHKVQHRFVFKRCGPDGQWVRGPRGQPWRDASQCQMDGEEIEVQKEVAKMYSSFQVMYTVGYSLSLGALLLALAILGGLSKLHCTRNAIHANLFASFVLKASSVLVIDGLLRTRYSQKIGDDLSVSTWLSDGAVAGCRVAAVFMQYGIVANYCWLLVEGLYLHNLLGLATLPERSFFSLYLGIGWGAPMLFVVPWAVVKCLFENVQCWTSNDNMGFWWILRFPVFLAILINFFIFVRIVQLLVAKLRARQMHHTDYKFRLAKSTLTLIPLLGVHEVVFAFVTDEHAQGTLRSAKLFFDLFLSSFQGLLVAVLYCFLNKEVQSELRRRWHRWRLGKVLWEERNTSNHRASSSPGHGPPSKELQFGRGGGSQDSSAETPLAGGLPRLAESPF
Sequence of hGcg-R (P47871 26-477): as above

Ki [1]: 20.2 ± 8.2 nM | 500 μL syringe Viscosity [3]: 1.05 cP or mPa-s | Emax ([4]; HEK293): 116 ± 4% | EC50 ([4]; cAMP, 60 minute incubation, 0.25% FBS, 0.05% BSA, geometric mean, read-out: Human Gcg-R EC50, nM ± SEM, (n)): 68.8 ± 7.2 nM | Ki [6]: 27.4 ± 3.3 nM | Emax ([7]; HEK293): 85.2 ± 6% | EC50 ([7]; cAMP, 60 minute incubation, 0.25% FBS, 0.05% BSA, geometric mean, read-out: Human GLP-1-R EC50, nM ± SEM (n)): 106 ± 18 nM | solubility at 1 week ([8]; 10 mM Tris pH 8.0 + 3 mg/mL m-cresol + 0.02% Tween-20, Tris pH 8 + 3 mg/mL m-cresol + 0.02% Tween-20): 10000 µg/mL | solubility at 1 week ([8]; 10 mM Tris pH 8.0 + 3 mg/mL m-cresol + 150 mM NaCl, Tris pH 8 + 3 mg/mL m-cresol + 150 mm NaCl): 10000 µg/mL | solubility at 1 week ([8]; 10 mM Tris pH 8.0 + 3 mg/mL m-cresol, Tris pH 8 + 3 mg/mL m-cresol): 10000 µg/mL | solubility at 1 week ([8]; PBS pH 7.4, pH 7.4, read-out: solubility in PBS, pH 7.4): 10000 µg/mL (≈ 2150 µM)
SMILES: CC(C)C[C@H](NC(=O)[C@H](CC(C)C)NC(=O)[C@H](Cc1c[nH]c2ccccc12)NC(=O)[C@H](CCC(=O)O)NC(=O)[C@@H](NC(=O)[C@H](Cc1ccccc1)NC(=O)[C@H](CCC(=O)O)NC(=O)[C@H](CCCCNC(=O)COCCOCCNC(=O)COCCOCCNC(=O)CC[C@H](NC(=O)CC[C@H](NC(=O)CCCCCCCCCCCCCCCCCCC(=O)O)C(=O)O)C(=O)O)NC(=O)[C@H](C)NC(=O)[C@H](CCCCN)NC(=O)[C@H](CCCCN)NC(=O)[C@H](CCC(=O)O)NC(=O)[C@H](CC(=O)O)NC(=O)[C@H](CC(C)C)NC(=O)[C@H](Cc1ccc(O)cc1)NC(=O)[C@H](CCCCN)NC(=O)[C@H](CO)NC(=O)[C@H](Cc1ccc(O)cc1)NC(=O)[C@H](CC(=O)O)NC(=O)[C@H](CO)NC(=O)[C@@H](NC(=O)[C@H](Cc1ccccc1)NC(=O)[C@@H](NC(=O)CNC(=O)[C@H](CCC(N)=O)NC(=O)C(C)(C)NC(=O)[C@@H](N)Cc1c[nH]cn1)[C@@H](C)O)[C@@H](C)O)C(C)C)C(=O)N[C@@H](CO)C(=O)NCC(=O)NCC(=O)N1CCC[C@H]1C(=O)N[C@@H](CO)C(=O)N[C@@H](CO)C(=O)NCC(N)=O [Compound 4] (H-H[Aib]QGTFTSDYSKYLDEKKAK([AEEA-AEEA-γGlu-γGlu-C20 diacid])EFVEWLLSGGPSSG-NH2; N-terminus assumed)
44 hours Glucose AUC (% of Vehicle) ([2]; OGTT 44 hours post-injection, 25 nmol/kg sc): 41* % of Vehicle | 78 hours Glucose AUC (% of Vehicle) ([2]; OGTT 78 hours post-injection, 25 nmol/kg sc): 60* % of Vehicle | glucose excursions post an oral glucose challenge ([2]; OGTTs at 44 and 78 hours post injection, 25 nmol/kg): lower glucose excursions post an oral glucose challenge at both time points | Blood glucose (mg/dL) post-injection, Mean ([2]; 2 hours post-injection): 110.2 mg/dL | Blood glucose (mg/dL) post-injection, Mean ([2]; 8 hours post-injection): 91.5 mg/dL | Blood glucose (mg/dL) post-injection, Mean ([2]; 24 hours post-injection): 87.4 mg/dL | Blood glucose (mg/dL) post-injection, Mean ([2]; 48 hours post-injection): 102.9 mg/dL | Blood glucose (mg/dL) post-injection, Mean ([2]; 72 hours post-injection): 115.7 mg/dL | Blood glucose (mg/dL) post-injection, Mean ([2]; 96 hours post-injection): 104.6 mg/dL | Body Fat (% change vs. vehicle from Day 1) [5, 9]: −26* % | Body Weight (% change vs. vehicle from Day 1) [5, 9]: −15* % | Body Fat (% change vs. vehicle from Day 1) [5, 10]: −69* % | Body Weight (% change vs. vehicle from Day 1) [5, 10]: −39* % | HMW species formation by SEC-HPLC ([8]; 1 week at 4° C.): No observed HMW species formation by SEC-HPLC; | visible precipitation or phase separation ([8]; after 1 week storage at 4° C.): No visible precipitation or phase separation observed after 1 week
